In this assay the test system is M. tuberculosis H37Rv growth inhibition. Nature of the assay: M. tuberculosis H37Rv growth inhibitors, H37Rv strain (AID 1626). The following applies: for IC90: measured here: IC90 against H37Rv; for CC50: measured here: Vero cell cytotoxicity.

Take `O=C(CSc1nc2ccc(Cl)cc2[nH]1)Nc1ccc2c(c1)CCC2`: the IC50 is 29.8 µM, the IC90 was more than 100 µM and the CC50 is more than 40 µM.
Taken in the same sequence, the figures for `CCOC(=O)c1cnc(-n2nc(C)cc2C)nc1NC1CCCC1` were 0.755 µM, 0.859 µM and 15.2 µM.
Regarding `Cc1nc2ccccn2c1C(=O)NCc1ccc2c(c1)OCO2`, the IC50 was 1.62 µM and the 90% effect concentration (IC90) was found to be 7.83 µM.
Taken in the same sequence, the figures for `CC(C)(C)c1ccc(OC(=O)c2ccc3snnc3c2)cc1` were 5.94 µM and more than 100 µM.
As to `Clc1ccc(COC(Cn2ccnc2)c2ccc(Cl)cc2Cl)c(Cl)c1` (centres undefined), the IC50 was 2.85 µM, the IC90 amounted to 3.27 µM and the half-maximal cytotoxic concentration (CC50) amounted to 36.8 µM.
Regarding `CCOC(=O)c1c(C)n(-c2ccc(C)cc2)c2ccc(OCC(O)CNCCCO)cc12` (centres undefined), the concentration for half-maximal inhibition (IC50) is 20.3 µM, the IC90 came to 37.1 µM and the cytotoxic concentration (CC50) was 13 µM.
As for `Cc1cccc(N=Nc2c(N)n[nH]c2-c2ccc(Cl)cc2)c1`, the 50% inhibitory concentration (IC50) was 59.1 µM and the IC90 was more than 100 µM.
In the case of `CCOC(=O)c1c(C)n(C)c2ccc(OC(C)C(=O)OC)cc12` (centres undefined), the concentration for half-maximal inhibition (IC50) is 8.04 µM and the IC90 came to 14.4 µM.
Taken in the same sequence, the figures for `CCCOC(=O)c1ccc(NC(=O)C2C3C=CC(O3)C2C(=O)O)cc1` (centres undefined) were 35.2 µM and more than 100 µM.
Take `Cc1cc(N2CCN(c3ccccc3)CC2)nc(-n2nc(C)cc2C)n1`: the 50% inhibitory concentration (IC50) was 8.84 µM, the IC90 stood at 47.3 µM and the cytotoxic concentration (CC50) was 18.3 µM.
`O=C(Oc1ccc2ccc(O)cc2c1)C1CCCCC1` gave a 90% effect concentration (IC90) of more than 100 µM.
As to `Cc1cccc(CN2C(=O)[C@@H]3Cc4c([nH]c5ccccc45)C(C)(C)N3C2=O)c1`, the 50% inhibitory concentration (IC50) is 8.69 µM, the IC90 amounted to 14.3 µM and the half-maximal cytotoxic concentration (CC50) is more than 40 µM.
With `O=c1nc2c(O)cccn2c2c1c(=O)[nH]c1ccccc12`, the IC50 was 6.69 µM and the 90% effect concentration (IC90) was 12.4 µM.
Consider `O=C(c1ccc2c3c(cccc13)CC2)C1CCCN(Cc2ccccn2)C1` (centres undefined), for which the half-inhibitory concentration (IC50) was 10 µM, the IC90 was more than 100 µM and the half-maximal cytotoxic concentration (CC50) is more than 40 µM.
The compound `O=C(CSc1cccc2cccnc12)N1CCCC1` yielded a CC50 of 27.4 µM.
`Cc1ccc(C(=O)/C=C/C(=O)c2ccc(C)cc2)cc1`: the 50% inhibitory concentration (IC50) is 5.49 µM, the concentration for an effect of 90% (IC90) stood at 9.24 µM and the CC50 is more than 40 µM.
In the same order, the values of `Cc1ccc(Oc2nc(-c3ccccn3)nc3ccccc23)cc1` are 2.56 µM, 10.5 µM and 22.4 µM.
For `CCCCCCCCC/C(=N\O)c1ccccn1`, the IC50 is 1.55 µM, the IC90 was 1.68 µM and the CC50 was 13.2 µM.
In the case of `Cc1ccccc1NC(=O)/C=C/c1ccc([N+](=O)[O-])s1`, the 50% inhibitory concentration (IC50) was 1.46 µM, the IC90 is 1.92 µM and the CC50 was 18.6 µM.
On to `Cc1nc2ccc(NC(=O)COc3cccc(F)c3)cc2s1`, for which the IC50 was 20.6 µM and the IC90 is more than 100 µM.
Turning to `Cc1ccc(C(=O)Nc2nc(C)c(C(=O)Nc3ccc4c(c3)CCC4)s2)cc1`, the IC50 is 2.67 µM, the 90% effect concentration (IC90) came to 5.77 µM and the CC50 was determined as 7.56 µM.
`COC(=O)Cc1ccc(NC(=O)c2ccc(Br)o2)cc1` returned an IC90 of more than 100 µM.
As for `O=c1c2cc(Cl)ccc2oc2nc3n(c(=O)c12)CCCS3`, the IC50 is 0.803 µM and the concentration for an effect of 90% (IC90) was 8.71 µM.
As to `O=C(Nc1ccccc1Cl)Oc1ccc(-c2ccccc2)cc1`, the IC50 is 59.5 µM, the concentration for an effect of 90% (IC90) was more than 100 µM and the CC50 is more than 40 µM.
Take `COC(=O)c1cc(/C=C/c2ccccc2)on1`: the IC50 was 1.33 µM and the IC90 is more than 100 µM.
In the same order, the values of `CC(C)c1ccc(CNC(=O)CSCC(=O)Nc2ccc3ccccc3c2)cc1` are 18 µM and more than 100 µM.
Take `O=C(/C=C/c1cccc([N+](=O)[O-])c1)c1cccs1`: the IC50 is 11.1 µM and the 90% effect concentration (IC90) amounted to 12.8 µM.
In the case of `Cc1ccc(OCc2nnc(SCc3cc(=O)[nH]c4ccccc34)n2-c2ccccc2)cc1`, the IC50 was 27.8 µM, the concentration for an effect of 90% (IC90) was more than 100 µM and the CC50 is more than 40 µM.
The compound `CCOC(=O)c1cnn(C(=O)c2ccccc2)c1N` came in with a concentration for an effect of 90% (IC90) of more than 100 µM.
With `CCOC(=O)c1cccc(NC(=O)CCc2nc(-c3ccc(C)cc3)no2)c1`, the concentration for half-maximal inhibition (IC50) was 30.1 µM and the IC90 is more than 100 µM.
In the same order, the values of `Cc1cc(C)n(-c2nc(Nc3ccccc3C)nc(-n3nc(C)cc3C)n2)n1` are 88.4 µM and more than 100 µM.
As for `N#CCC1c2ccccc2CCN1C(=O)Nc1ccc(C(F)(F)F)cc1` (centres undefined), the IC50 is 5.9 µM and the IC90 was more than 100 µM.
As for `CC(C)Nc1cc(C(F)(F)F)nc(-c2ccccn2)n1`, the 50% inhibitory concentration (IC50) is 5.17 µM and the IC90 was more than 100 µM.
For the compound `COc1ccc(Cn2c(SCc3cc(C)ccc3C)nc3cc(OC)c(OC)cc3c2=N)cc1`, the IC50 was 2.59 µM, the 90% effect concentration (IC90) came to 2.83 µM and the 50% cytotoxic concentration (CC50) was 7.51 µM.
As for `CC(=O)c1ccc(NC(=O)c2cc(CC(C)C)on2)cc1`, the 50% inhibitory concentration (IC50) is 7.21 µM and the concentration for an effect of 90% (IC90) is 42.9 µM.
Regarding `O=C1c2cccc3c([N+](=O)[O-])ccc(c23)C(=O)N1CC1CCCO1` (centres undefined), the IC50 was 3.76 µM, the concentration for an effect of 90% (IC90) worked out at 12.5 µM and the CC50 stood at 18.1 µM.
In the same order, the values of `CC[n+]1c(/C=C2\Sc3ccccc3N2C)ccc2cccc(C)c21` are 1.01 µM, 1.4 µM and 2.41 µM.
For `CCOc1ccc(NC2C=CS(=O)(=O)C2)cc1` (centres undefined), the IC90 was more than 100 µM.
Same read-out and setting: then `O=C1CCNc2ccc(-c3ccccc3)cc21`, with more than 100 µM.
With `Cc1ccc(NC(=O)c2ccc([N+](=O)[O-])o2)cc1C`, the IC50 was less than 0.195 µM, the IC90 was 8.63 µM and the CC50 is more than 40 µM.
In the same order, the values of `CC(=O)Nc1cccc(C(=O)/C=C/c2ccc(C)cc2)c1` are 33.7 µM, more than 100 µM and 13.7 µM.
As to `O=C(CSc1nnc(NC(=O)c2ccccc2Cl)s1)Nc1ccc2c(c1)oc1ccccc12`, the CC50 was more than 40 µM.
Turning to `N=C1/C(=C/c2ccc(OC(=O)c3ccco3)cc2)C(=O)N=C2SC=CN12`, the IC90 was more than 100 µM.
Regarding `CCOc1ccc2nc(NC(=O)C(CC)Sc3nc(C)cc(=O)[nH]3)sc2c1` (centres undefined), the IC50 is 35.7 µM, the 90% effect concentration (IC90) is more than 100 µM and the cytotoxic concentration (CC50) is more than 40 µM.
As to `Cc1ccc(CSc2nnc(CCCCCNC(=O)OC(C)(C)C)o2)cc1`, the IC50 is 11.7 µM and the IC90 is 13.6 µM.
In the case of `CCn1c(NC(=O)c2cccc(Cn3cc(Cl)cn3)c2)nc2ccccc21`, the concentration for half-maximal inhibition (IC50) was 3.65 µM, the IC90 was more than 100 µM and the CC50 is more than 40 µM.
For the compound `O=C(NC12CC3CC(CC(C3)C1)C2)c1ccc(-c2ccc(Br)cc2)o1`, the IC50 was 6.56 µM, the IC90 worked out at 12.7 µM and the 50% cytotoxic concentration (CC50) is 35.3 µM.
As to `Cc1cc(NC(=O)CSc2nnc(-c3ccccc3)o2)no1`, the concentration for half-maximal inhibition (IC50) was 5.7 µM, the IC90 is 10.1 µM and the cytotoxic concentration (CC50) is more than 40 µM.
In the same order, the values of `Cc1ccc2cc(/C=C/C(=O)c3ccco3)c(Cl)nc2c1` are 19.3 µM, more than 100 µM and more than 40 µM.

By IC50 is commonly meant the concentration needed to halve the response being measured. The IC90 is the concentration at which the effect reaches the 90% level. Higher therefore signals weaker potency. Usually CC50 stands for the concentration at which the toxic effect on the cells reaches its halfway point. Lower therefore signals harm at low concentration.

For the origin of these results see PubChem BioAssay AID1626 (SRMLSC, 2009).
